Experimental data as given in patent publication US7335672B2, “Vanilloid receptor ligands and their use in treatments” (Amgen Inc., priority 2004, dated 2008).

In the case of `CC(C)CN1CCCC[C@@H]1CNc1nc(Oc2cccc3[nH]c(=O)c(N)nc23)cc(-c2ccc(C(F)(F)F)cc2)n1` [Example 121, (R)-3-Amino-5-(2-((1-isobutylpiperidin-2-yl)methylamino)-6-(4-(trifluoromethyl)phenyl)pyrimidin-4-yloxy)quinoxalin-2(1H)-one], the melting point is reported as 229 °C. In the case of `COC[C@H](C)Nc1nc(Oc2cccc3[nH]c(=O)c(N)nc23)cc(-c2ccc(C(F)(F)F)cc2)n1` [Example 114], the melting point is reported as 243 °C. `CC(=O)Nc1nc2c(Oc3cc(-c4ccc(C(F)(F)F)cc4)nc(NC[C@@H]4CCCN4C(=O)OC(C)(C)C)n3)cccc2s1` [Example 71, tert-butyl (2S)-2-[({4-{[2-(acetylamino)-1,3-benzothiazol-4-yl]oxy}-6-[4-(trifluoromethyl)phenyl]pyrimidin-2-yl}amino)methyl]pyrrolidine-1-carboxylate] gave a melting point of 132 °C. With `CS(=O)(=O)Nc1cccc(CNc2nc(Oc3cccc4[nH]c(=O)c(N)nc34)cc(-c3ccc(C(F)(F)F)cc3)n2)c1` [Example 116, N-{3-[({4-[(3-amino-2-oxo-1,2-dihydroquinoxalin-5-yl)oxy]-6-[4-(trifluoromethyl)phenyl]pyrimidin-2-yl}amino)methyl]phenyl}methanesulfonamide] the melting point was > 300 °C. With `COCC(C)Nc1nc(Oc2cccc3[nH]c(=O)c(N)nc23)cc(-c2ccc(C(F)(F)F)cc2)n1` (centres unmarked) [Example 109] the melting point was 241 °C. Work on `CC(C)CN1CCCC[C@H]1CNc1nc(Oc2cccc3[nH]c(=O)c(N)nc23)cc(-c2ccc(C(F)(F)F)cc2)n1` [Example 120, (S)-3-Amino-5-(2-((1-isobutylpiperidin-2-yl)methylamino)-6-(4-(trifluoromethyl)phenyl)pyrimidin-4-yloxy)quinoxalin-2(1H)-one] yielded a melting point of 228 °C. Compound `CC(=O)Nc1nc2c(Oc3cc(-c4ccc(C(F)(F)F)cc4)nc(N4CCCC(O)C4)n3)cccc2s1` (centres unmarked) [Example 39] has a melting point of 198 °C. For `CC(=O)Nc1nc2c(Oc3cc(-c4ccc(C(F)(F)F)cc4)nc(NCC4CCCN(C(=O)OC(C)(C)C)C4)n3)cccc2s1` (centres unmarked) [Example 70], the melting point was 128 °C. With `CS(=O)(=O)N1CCN(c2nc(Oc3cccc4[nH]c(=O)c(N)nc34)cc(-c3ccc(C(F)(F)F)cc3)n2)CC1` [Example 117, 3-amino-5-({2-[4-(methylsulfonyl)piperazin-1-yl]-6-[4-(trifluoromethyl)phenyl]pyrimidin-4-yl}oxy)quinoxalin-2(1H)-one] the melting point was > 300 °C. With `CC(=O)Nc1nc2c(Oc3cc(-c4ccc(C(F)(F)F)cc4)nc(-c4cccnc4)n3)cccc2s1` [Example 9] the melting point was 268 to 270 °C. With `CC(=O)Nc1nc2c(Oc3cc(-c4ccc(C(F)(F)F)cc4)nc(N4CCC(C(=O)O)CC4)n3)cccc2s1` [Example 42, 1-{4-{[2-(acetylamino)-1,3-benzothiazol-4-yl]oxy}-6-[4-(trifluoromethyl)phenyl]pyrimidin-2-yl}piperidine-4-carboxylic acid] the melting point was 277 to 278 °C. `CC(=O)Nc1nc2c(Oc3cc(-c4ccc(C(F)(F)F)cc4)nc(N4CCN(C(=O)OC(C)(C)C)CC4)n3)cccc2s1` [Example 34, tert-Butyl 4-(4-(2-acetamidobenzo[d]thiazol-4-yloxy)-6-(4-(trifluoromethyl)phenyl)pyrimidin-2-yl)piperazine-1-carboxylate] gave a melting point of 211 °C. In the case of `CC(Nc1nc(Oc2cccc3[nH]c(=O)c(N)nc23)cc(-c2ccc(C(F)(F)F)cc2)n1)c1ccccn1` (centres unmarked) [Example 113], the melting point is reported as 289 °C. Work on `CC(=O)Nc1nc2c(Oc3cc(-c4ccc(C(F)(F)F)cc4)nc(NCc4cccnc4)n3)cccc2s1` [Example 53] yielded a melting point of 240 °C.
